For experiment [1], the target named is Beta-3 adrenergic receptor (Homo sapiens) (UniProt P13945). The note with it: Compound concentration 10.0 uM.
In experiment [2] the target is Tyrosine-protein kinase ABL1 (Homo sapiens) (UniProt P00519). Briefly: Abl(h) Eurofins kinase panel. The note with it: Compound concentration 1.0 uM.
The target of experiment [3] is Ephrin type-A receptor 2 (Homo sapiens) (UniProt P29317). Description: EphA2(h) Eurofins kinase panel. The note with it: Compound concentration 1.0 uM.
For experiment [4], the target named is Ephrin type-A receptor 5 (Homo sapiens) (UniProt P54756). Briefly: EphA5(h) Eurofins kinase panel. The note with it: Compound concentration 1.0 uM.
For experiment [5], the target named is Homeodomain-interacting protein kinase 3 (Homo sapiens) (UniProt Q9H422). Briefly: HIPK3(h) Eurofins kinase panel. The note with it: Compound concentration 1.0 uM.
The target of experiment [6] is T1, Inhibitor of nuclear factor kappa-B kinase subunit beta (Homo sapiens) (UniProt O14920).
T1 sequence (whole entry): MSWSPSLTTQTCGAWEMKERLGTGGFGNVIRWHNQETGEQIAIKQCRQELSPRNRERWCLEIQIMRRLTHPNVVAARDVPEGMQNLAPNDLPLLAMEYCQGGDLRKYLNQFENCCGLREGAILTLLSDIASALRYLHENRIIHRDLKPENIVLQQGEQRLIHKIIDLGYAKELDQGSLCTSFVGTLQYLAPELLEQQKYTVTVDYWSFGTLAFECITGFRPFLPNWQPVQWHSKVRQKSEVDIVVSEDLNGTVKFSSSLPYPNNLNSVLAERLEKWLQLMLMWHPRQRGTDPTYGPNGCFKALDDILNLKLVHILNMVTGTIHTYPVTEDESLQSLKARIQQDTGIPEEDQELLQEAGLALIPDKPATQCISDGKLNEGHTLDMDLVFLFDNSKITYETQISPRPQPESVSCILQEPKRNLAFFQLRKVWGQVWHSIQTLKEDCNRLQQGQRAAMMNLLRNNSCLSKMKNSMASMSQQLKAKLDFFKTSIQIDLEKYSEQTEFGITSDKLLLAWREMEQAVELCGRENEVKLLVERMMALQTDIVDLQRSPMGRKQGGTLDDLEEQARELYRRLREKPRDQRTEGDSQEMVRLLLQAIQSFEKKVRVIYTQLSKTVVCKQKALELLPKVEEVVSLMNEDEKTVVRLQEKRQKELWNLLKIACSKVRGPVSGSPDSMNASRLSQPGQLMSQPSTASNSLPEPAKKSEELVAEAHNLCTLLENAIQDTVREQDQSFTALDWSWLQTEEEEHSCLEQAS
Briefly: IKKbeta(h) Eurofins kinase panel. The note with it: Compound concentration 1.0 uM.

Experiment [7] concerns the target Tyrosine-protein kinase Lck (Homo sapiens) (UniProt P06239). Description: Lck(h) Eurofins kinase panel. The note with it: Compound concentration 1.0 uM.
In experiment [8] the target is T2, Mitogen-activated protein kinase kinase kinase kinase 3 (Homo sapiens) (UniProt Q8IVH8).
T2 sequence (whole entry): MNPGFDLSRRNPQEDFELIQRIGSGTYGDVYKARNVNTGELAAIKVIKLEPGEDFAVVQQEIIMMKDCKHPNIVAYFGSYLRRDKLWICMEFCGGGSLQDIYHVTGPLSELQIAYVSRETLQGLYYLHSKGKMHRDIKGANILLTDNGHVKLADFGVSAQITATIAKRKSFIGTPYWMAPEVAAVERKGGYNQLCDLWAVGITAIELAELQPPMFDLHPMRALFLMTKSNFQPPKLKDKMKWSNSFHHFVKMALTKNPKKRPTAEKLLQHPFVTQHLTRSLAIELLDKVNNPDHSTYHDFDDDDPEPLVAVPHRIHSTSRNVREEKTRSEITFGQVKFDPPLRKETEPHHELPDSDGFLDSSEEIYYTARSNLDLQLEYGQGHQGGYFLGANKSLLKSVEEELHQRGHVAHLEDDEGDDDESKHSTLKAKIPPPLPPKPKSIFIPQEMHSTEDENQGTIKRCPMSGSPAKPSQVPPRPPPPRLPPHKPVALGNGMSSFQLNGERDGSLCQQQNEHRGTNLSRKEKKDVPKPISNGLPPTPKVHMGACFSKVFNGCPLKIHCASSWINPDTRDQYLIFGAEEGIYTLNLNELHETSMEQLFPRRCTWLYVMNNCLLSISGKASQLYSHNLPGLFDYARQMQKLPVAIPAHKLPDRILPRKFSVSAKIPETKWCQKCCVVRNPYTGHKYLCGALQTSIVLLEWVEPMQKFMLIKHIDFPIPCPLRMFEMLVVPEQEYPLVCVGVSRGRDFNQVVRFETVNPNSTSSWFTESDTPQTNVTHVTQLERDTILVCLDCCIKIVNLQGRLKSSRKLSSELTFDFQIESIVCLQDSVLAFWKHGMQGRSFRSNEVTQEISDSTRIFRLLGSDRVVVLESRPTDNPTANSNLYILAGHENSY
Description: MAP4K3(h) Eurofins kinase panel. The note with it: Compound concentration 1.0 uM.

Experiment [9] concerns the target T3, Myosin light chain kinase (Homo sapiens) (UniProt Q32MK0).
T3 sequence (whole entry): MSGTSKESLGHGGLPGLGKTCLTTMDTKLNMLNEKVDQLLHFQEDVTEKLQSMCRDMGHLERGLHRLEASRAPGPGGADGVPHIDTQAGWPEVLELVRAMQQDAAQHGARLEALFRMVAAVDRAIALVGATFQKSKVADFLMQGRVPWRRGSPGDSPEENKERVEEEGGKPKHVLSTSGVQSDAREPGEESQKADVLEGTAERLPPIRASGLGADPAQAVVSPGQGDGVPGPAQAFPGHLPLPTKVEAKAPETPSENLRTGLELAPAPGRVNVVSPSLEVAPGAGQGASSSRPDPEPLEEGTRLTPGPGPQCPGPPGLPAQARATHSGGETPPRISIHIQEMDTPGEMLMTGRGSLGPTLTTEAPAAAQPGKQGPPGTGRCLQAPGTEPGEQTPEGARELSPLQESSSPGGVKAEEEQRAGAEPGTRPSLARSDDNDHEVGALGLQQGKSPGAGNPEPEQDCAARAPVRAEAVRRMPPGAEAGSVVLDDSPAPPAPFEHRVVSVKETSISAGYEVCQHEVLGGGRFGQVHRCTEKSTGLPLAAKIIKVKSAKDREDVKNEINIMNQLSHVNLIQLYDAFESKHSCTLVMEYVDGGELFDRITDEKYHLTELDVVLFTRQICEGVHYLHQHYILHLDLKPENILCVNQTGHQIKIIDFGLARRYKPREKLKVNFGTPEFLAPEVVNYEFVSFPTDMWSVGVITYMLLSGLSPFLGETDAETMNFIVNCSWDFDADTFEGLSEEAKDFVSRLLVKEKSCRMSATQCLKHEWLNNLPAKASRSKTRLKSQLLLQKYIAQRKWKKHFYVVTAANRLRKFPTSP
Briefly: MLCK(h) Eurofins kinase panel. The note with it: Compound concentration 1.0 uM.

The target of experiment [10] is Serine/threonine-protein kinase N1 (Homo sapiens) (UniProt Q16512). Description: PRK1(h) Eurofins kinase panel. The note with it: Compound concentration 1.0 uM.
A further experiment relates to HeLa. Description: HeLa cell line Proliferation assay. It is filed as functional, Homo sapiens. The note with it: time 3 day.
The target of experiment [11] is Ribosomal protein S6 kinase alpha-5 (Homo sapiens, UniProt O75582).

Chain of Tyrosine-protein kinase ABL1 (Homo sapiens) (P00519 whole entry): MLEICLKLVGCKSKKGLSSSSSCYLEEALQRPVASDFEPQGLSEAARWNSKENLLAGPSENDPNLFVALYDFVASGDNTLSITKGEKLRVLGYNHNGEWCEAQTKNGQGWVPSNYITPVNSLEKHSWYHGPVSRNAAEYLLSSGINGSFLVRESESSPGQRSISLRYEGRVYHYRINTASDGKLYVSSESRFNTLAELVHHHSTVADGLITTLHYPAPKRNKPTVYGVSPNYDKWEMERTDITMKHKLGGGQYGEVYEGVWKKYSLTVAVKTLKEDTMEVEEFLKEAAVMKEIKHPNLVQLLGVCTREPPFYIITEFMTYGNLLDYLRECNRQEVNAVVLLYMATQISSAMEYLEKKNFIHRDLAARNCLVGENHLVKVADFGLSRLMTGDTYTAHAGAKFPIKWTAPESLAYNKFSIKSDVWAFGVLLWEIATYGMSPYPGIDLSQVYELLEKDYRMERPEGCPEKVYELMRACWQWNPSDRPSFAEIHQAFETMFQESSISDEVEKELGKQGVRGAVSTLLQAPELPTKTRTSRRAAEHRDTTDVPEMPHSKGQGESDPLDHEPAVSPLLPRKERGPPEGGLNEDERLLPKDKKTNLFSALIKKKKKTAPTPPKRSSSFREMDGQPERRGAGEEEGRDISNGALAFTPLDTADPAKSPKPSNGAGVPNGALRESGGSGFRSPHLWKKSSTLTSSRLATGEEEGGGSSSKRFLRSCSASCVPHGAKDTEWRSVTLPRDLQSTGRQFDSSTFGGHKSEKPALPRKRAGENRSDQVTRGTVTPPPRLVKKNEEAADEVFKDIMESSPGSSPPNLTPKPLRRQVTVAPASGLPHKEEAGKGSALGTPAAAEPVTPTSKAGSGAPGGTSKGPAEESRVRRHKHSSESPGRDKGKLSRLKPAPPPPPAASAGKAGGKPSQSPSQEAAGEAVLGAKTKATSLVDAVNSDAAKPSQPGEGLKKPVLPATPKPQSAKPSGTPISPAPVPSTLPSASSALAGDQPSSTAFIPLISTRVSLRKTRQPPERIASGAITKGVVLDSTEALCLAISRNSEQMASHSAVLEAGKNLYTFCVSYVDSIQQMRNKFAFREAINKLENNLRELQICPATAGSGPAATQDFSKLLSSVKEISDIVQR
Chain of Ephrin type-A receptor 5 (Homo sapiens) (P54756 whole entry): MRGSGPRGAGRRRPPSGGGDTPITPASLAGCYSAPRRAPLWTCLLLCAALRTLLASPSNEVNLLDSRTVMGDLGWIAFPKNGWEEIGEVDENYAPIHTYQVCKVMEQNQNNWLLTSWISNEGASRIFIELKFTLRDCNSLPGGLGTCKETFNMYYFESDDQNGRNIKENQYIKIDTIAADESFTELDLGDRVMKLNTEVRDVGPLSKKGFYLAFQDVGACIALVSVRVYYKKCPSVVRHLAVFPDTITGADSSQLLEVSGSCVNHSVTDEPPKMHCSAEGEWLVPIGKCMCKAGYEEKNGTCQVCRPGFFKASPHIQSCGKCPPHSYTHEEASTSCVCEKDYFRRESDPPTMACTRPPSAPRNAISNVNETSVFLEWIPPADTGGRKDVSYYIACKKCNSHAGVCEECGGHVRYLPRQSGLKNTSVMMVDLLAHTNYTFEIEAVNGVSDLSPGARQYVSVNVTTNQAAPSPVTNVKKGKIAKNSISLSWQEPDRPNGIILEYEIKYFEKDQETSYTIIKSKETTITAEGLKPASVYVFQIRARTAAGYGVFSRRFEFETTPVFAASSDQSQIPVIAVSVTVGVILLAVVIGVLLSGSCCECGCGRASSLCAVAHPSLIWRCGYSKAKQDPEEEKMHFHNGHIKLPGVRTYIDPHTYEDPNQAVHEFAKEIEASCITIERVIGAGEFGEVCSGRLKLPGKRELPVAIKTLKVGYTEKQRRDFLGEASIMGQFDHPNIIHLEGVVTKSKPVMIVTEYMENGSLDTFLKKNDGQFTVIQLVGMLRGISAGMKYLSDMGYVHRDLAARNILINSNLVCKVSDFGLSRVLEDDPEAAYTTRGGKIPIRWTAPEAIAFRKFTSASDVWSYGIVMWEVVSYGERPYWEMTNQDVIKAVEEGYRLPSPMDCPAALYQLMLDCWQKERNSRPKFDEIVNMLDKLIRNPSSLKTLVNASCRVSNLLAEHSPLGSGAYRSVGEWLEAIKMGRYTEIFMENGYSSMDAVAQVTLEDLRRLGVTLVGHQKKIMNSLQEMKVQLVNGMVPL
Chain of Homeodomain-interacting protein kinase 3 (Homo sapiens) (Q9H422 whole entry, looked up): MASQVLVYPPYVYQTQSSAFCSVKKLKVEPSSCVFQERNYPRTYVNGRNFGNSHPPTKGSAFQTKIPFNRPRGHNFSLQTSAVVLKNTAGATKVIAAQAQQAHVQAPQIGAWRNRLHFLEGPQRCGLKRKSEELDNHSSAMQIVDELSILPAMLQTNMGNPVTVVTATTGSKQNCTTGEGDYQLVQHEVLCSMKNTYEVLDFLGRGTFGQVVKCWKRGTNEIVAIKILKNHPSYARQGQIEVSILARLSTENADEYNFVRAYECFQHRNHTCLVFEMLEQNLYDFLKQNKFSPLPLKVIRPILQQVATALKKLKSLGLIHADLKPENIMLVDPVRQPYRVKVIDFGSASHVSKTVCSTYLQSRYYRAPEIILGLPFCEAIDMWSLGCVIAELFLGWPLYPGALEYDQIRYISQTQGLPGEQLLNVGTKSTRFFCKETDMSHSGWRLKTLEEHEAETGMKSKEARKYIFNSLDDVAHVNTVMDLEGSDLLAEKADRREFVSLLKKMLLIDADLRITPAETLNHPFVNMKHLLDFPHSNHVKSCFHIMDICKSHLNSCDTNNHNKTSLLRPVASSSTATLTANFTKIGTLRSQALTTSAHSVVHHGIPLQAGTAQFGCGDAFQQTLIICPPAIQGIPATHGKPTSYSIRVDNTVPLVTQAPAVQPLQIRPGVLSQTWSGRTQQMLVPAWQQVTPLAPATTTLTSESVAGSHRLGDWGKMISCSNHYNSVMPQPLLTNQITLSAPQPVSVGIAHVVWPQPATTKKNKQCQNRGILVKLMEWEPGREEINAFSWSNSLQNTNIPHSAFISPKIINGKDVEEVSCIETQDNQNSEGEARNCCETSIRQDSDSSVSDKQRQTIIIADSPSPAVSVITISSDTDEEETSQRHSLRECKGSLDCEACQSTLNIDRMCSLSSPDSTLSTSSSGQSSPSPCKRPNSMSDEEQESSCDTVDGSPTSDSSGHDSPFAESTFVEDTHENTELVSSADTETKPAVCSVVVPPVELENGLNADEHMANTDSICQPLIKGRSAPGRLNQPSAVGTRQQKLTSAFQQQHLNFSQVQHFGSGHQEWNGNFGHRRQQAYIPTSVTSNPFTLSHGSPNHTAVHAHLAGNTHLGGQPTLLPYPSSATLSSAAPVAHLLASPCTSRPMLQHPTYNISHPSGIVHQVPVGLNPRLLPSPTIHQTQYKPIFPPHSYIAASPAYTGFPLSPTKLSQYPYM
Chain of Ephrin type-A receptor 2 (Homo sapiens) (P29317 whole entry): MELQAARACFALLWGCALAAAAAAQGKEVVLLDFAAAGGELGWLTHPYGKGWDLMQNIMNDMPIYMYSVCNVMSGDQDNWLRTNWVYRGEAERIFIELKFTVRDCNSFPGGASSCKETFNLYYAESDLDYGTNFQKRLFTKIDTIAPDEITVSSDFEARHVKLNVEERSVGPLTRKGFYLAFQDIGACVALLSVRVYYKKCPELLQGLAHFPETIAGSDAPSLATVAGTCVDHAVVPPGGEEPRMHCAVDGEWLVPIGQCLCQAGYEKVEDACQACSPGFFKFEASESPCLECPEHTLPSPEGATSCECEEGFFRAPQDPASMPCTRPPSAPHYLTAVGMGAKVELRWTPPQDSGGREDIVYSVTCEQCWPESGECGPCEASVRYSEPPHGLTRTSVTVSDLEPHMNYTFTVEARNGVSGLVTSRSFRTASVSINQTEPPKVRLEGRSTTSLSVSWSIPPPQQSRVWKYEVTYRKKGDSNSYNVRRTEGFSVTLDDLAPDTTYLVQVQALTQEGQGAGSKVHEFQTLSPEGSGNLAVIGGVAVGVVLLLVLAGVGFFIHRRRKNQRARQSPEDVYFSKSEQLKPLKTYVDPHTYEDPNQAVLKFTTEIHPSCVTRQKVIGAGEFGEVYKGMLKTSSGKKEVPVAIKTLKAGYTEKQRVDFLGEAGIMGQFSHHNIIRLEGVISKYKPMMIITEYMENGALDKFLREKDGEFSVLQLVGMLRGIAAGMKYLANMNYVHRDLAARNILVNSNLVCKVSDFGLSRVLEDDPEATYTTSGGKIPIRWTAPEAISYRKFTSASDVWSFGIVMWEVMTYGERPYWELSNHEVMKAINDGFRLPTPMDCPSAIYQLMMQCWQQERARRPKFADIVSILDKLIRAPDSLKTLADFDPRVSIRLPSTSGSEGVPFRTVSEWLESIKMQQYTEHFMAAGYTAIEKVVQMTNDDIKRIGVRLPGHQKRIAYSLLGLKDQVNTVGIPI
Chain of Tyrosine-protein kinase Lck (Homo sapiens) (P06239 2-509 limits assumed): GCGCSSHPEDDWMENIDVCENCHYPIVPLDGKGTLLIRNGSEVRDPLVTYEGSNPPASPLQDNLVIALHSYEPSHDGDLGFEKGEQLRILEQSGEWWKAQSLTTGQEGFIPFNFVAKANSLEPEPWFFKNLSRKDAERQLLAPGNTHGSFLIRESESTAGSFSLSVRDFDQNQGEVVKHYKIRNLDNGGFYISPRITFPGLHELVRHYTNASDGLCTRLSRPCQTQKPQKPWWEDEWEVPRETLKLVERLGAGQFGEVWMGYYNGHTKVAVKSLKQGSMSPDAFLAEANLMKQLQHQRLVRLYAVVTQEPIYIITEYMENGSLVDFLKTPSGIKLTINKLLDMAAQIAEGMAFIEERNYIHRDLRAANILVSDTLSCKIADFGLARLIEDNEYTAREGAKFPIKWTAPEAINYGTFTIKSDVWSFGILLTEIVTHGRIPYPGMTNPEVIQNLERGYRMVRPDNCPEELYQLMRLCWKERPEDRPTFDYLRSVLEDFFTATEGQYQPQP

For orientation: inhibition means the change of the read-out against control, counted positive when it falls. In the case of `CC1=C(C#N)C(c2ccc3c(c2)c(NC(=O)c2ccccc2C)nn3C)C(C#N)=C(C)N1` [BAY-974], the inhibition in experiment [1] is -3.33%.
Usually IC50 stands for the concentration at which inhibition is half-maximal. Turning to `CCc1ccccc1C(=O)Nc1n[nH]c2c(C)c(F)c(C3C(C#N)=C(C)N(C)C(C)=C3C#N)cc12` [BAY-3827], the % residual kinase activity is 131% in experiment [2]; 88% in experiment [3]; 89% in [4]; 100% in [5]; 106% in experiment [6]; 93% in experiment [7]. Moreover, the % residual kinase activity was 78% in [8], 32% in experiment [9] and 74% in experiment [10]. Besides, in the experiment with HeLa, the “Cell Proliferation IC50” value worked out at 25700 nM. Besides, in experiment [11], 43 nM corresponded to half-maximal inhibition (IC50).
